Reference: article PMC6713164, “Inhibitory effects of flavonoids isolated from Sophora flavescens on indoleamine 2,3-dioxygenase 1 activity” (Journal of Enzyme Inhibition and Medicinal Chemistry, 2019)

Legend:
[1] = target: T1, IDO1 (Homo sapiens, UniProt P14902); assay: IDO1 enzyme kinetics assay (Lineweaver–Burk, Dixon plots); assay type: biochemical; settings: L-Trp 0–50 µM, flavonoids 0–45 µM, read-out: κi
Method: The kinetics assay was performed by adding purified protein to the reaction mixture (200 µL) which contained a final concentration of potassium phosphate buffer (50 mM, pH 6.5), ascorbic acid (20 mM), catalase (10 mM), methylene blue (10 µM), and distilled water up to 200 µL. Various concentrations of L-Trp as substrate of IDO1 were added to the reaction mixture with four different concentrations of flavonoids (0–45 µM). After incubation at 37 °C for 1 h, the dissociation constant (κi) of the three flavonoids were determined by measuring the activity at five concentrations of L-Trp (0 to 50 µM).

[2] = target: T1, IDO1; assay: Thermal shift assay (SYPRO-Orange); assay type: binding; settings: 30 µM compound, without L-Trp; read-out: increase of mean melting temperature (ΔTm) compared to DMSO-treated group
Method: The thermal stability of proteins was measured by SYPRO-Orange (Thermo Fisher Scientific, Waltham, MA) as previously described in Soderhole et al.[24]. Briefly, IDO 1 enzyme (5 µg/mL) was mixed with 30 µM of kushenol F (KF, 4), (2S)-2'-methoxy kurarinone (MK, 5), and kushenol E (KE, 6), or serially diluted KE (6) in 20 µL reaction buffer containing potassium phosphate buffer (50 mM) and sodium chloride (100 mM), and then incubated for 1 h. The measurement of protein denaturation via an increase in temperature was determined using real-time PCR device (CFX96 Real Time System, BioRad, Hercules, CA) using the FRET channel. In the presence of IDO1 enzyme, SYPRO-Orange has a maximum excitation near 490 nm and a maximum emission near 600 nm. The heating rate and fluorescence reading were 0.5 °C/10 s depending on the temperature range 25–95 °C.

[3] = target: T1, IDO1; assay: Cell-based IDO1 assay (Kyn production) in IFN-γ-treated HeLa cells; design: to induce endogenous IDO1 expression; endogenous in cells; host or cells: HeLa cells stimulated with IFN-γ; settings: IFN-γ-treated (50 ng/mL, 24 h) HeLa cells, compound 6 h; mean ± SD; read-out: IC50 against cell-based IDO1 (Kyn production)
Method: HeLa (Human cervical cancer cells) cells were purchased from the American Type Culture Collection (ATCC) and cultured in DMEM supplemented with fetal bovine serum (FBS, 10%) and penicillin–streptomycin (1%).
HeLa cells were seeded into 48-well plates (2 × 10^4 cells/well). Next, the cells were stimulated with human recombinant IFN-γ (50 ng/mL, R&D Systems, Minneapolis, MN) in complete DMEM for 24 h. After replacing the medium with DMEM containing IFN-γ, the cells were treated with the flavonoids (1–6) or DMSO (0.5%, v/v) for 6 h, and then the supernatant (125 µL) from each well was transferred to a 96-well plate. The cell-based assay was similarly performed to the IDO1 enzyme assay.

[4] = target: T1, IDO1; assay: IDO1 enzyme assay; assay type: biochemical; design: The full-length of IDO1 gene was amplified by PCR; His tag; made in house; host or cells: Escherichia coli T7 strain, vector pET28a; settings: recombinant human IDO1, L-Trp 200 µM, 37 °C, 1 h, mean ± SD; for IC50: read-out: His-hIDO1 IC50
Description: The Escherihia coli DH5α and T7 strain were used for gene cloning and protein production, respectively. The human IDO1 clone was provided from Korea Human Gene Bank, Medical Genomics Research Center, KRIBB, Korea. The full-length of IDO1 gene was amplified by PCR using pfu DNA polymerase (Thermo Fisher, , Waltham, MA). The PCR product from IDO1 mRNA was cloned into expression vector pET28a to obtain pET28a-IDO1 and confirmed using DNA sequencing (Cosmogenetech, Seoul, Korea). […] The expressed IDO1 protein was purified using Ni-NTA agarose (Qiagen, Valencia, CA) at 4 °C. The eluted IDO1 protein was dialysed using storage buffer (20 mM Tris-HCl buffer (pH 8.0 and 200 mM NaCl)). The purified IDO1 protein was analysed with SDS-PAGE.
The enzyme assays were performed with previous descripted in Takikawa et al.[23]. Briefly, 200 µL of the reaction mixture contained potassium phosphate buffer (50 mM, pH 6.5), ascorbic acid (20 mM), methylene blue (10 µM), catalase (10 mM), purified recombinant human IDO1 enzyme (5 µg/mL) and L-Trp (200 µM). The metabolites were serially diluted in dimethyl sulfoxide (DMSO, 0.5%, v/v) and transferred to a 96-well plates. […] The plates were centrifuged at 4000 rpm for 15 min to remove debris. Next, the supernatant (125 µL) from each well was transferred to a 96-well plates. p-dimethylaminobenzaldehyde (125 µL; 2%, v/v) in acetic acid was then added to each well, and the absorbance value of the plate was read at a wavelength of 480 nm using a SpectraMAX-190 ELISA reader (Molecular Devices, Sunnyvale, CA).

[5] = target: T2, His-IDO1 (WT) (Homo sapiens, UniProt P14902); assay: Surface plasmon resonance (SPR) assay, His-IDO1 (WT); assay type: binding
T2 construct: The full-length of IDO1 gene was amplified by PCR; His tag; made in house; host or cells: Escherichia coli T7 strain, vector pET28a
T2 sequence (P14902 whole entry): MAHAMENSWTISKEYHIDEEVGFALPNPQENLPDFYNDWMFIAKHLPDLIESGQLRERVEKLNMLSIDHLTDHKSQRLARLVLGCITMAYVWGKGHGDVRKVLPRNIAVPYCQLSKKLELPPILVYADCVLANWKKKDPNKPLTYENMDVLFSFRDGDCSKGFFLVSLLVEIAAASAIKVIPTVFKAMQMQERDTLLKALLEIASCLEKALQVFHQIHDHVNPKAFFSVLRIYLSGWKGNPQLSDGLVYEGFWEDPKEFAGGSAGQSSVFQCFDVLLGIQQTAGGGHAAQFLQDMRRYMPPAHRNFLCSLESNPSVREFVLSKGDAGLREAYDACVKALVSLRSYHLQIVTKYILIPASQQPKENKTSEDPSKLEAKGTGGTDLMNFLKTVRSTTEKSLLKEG
Method: (§1) The SPR assay was performed with 10 mM stock solution and five serially diluted concentrations of KE (6) in PBS and 5% DMSO at 25 °C using a Reichert instrument (SR7500DC System, USA) using a sensor chip CM5 (GE Healthcare, Chicago, IL) (Woojung BSC Inc, Seoul, Korea). Amine coupling of His-IDO1 (WT and P314A) was performed with 0.2 M 1-ethyl-3-(3-dimethylaminopropyl)-carbodiimide, 0.05 M N-hydroxysuccinimide, and 1 M ethanolamine (ph 8.5, GE Healthcare, Chicago, IL). The results were analysed using Scrubber software (version 2.0, BioLogic Software, Mundelein, IL).

[6] = target: T3, His-IDO1 (P314A) (Homo sapiens, UniProt P14902, P314A); assay: Surface plasmon resonance (SPR) assay, His-IDO1 (P314A); assay type: binding
T3 construct: The full-length of IDO1 gene was amplified by PCR; His tag; made in house
T3 sequence (P14902 whole entry P314A): as the sequence (P14902 whole entry) above, with P314A counted along it
Method: as §1
(§2) Point mutations were introduced using the Muta-Direct^TM mutagenesis kit (iNtRON, Seuol, Korea). Oligonucleotides for generation of Pro182 (P182A), Phe185 (F185A), double mutation (P182A and F185A), and Pro 314 (P314A) to alanine mutants (mutated residues are underlined) were as follows: • For P182A: 5′-[…]-3′, 5′-[…]-3′. • For F185A: 5′-[…]-3′, 5′-[…]-3′. • For double mutation (P182A and F185A): 5′-[…]-3′, 5′-[…]-3′. • For P314A: 5′- […]-3′, 5′- […]-3′.

[7] = target: T3, His-IDO1 (P314A); assay: Mutagenesis assay: IDO1 enzyme assay with P314A mutant; assay type: biochemical; settings: mutant form of His-IDO1 (P314A)
Method: The enzyme assays were performed with previous descripted in Takikawa et al.[23]. […]. The metabolites were serially diluted in dimethyl sulfoxide (DMSO, 0.5%, v/v) and transferred to a 96-well plates. The reaction was conducted at 37 °C for 1 h and stopped by adding 40 µL of trichloroacetic acid (30%); the solution was then heated at 65 °C for 15 min. The plates were centrifuged at 4000 rpm for 15 min to remove debris. Next, the supernatant (125 µL) from each well was transferred to a 96-well plates. p-dimethylaminobenzaldehyde (125 µL; 2%, v/v) in acetic acid was then added to each well, and the absorbance value of the plate was read at a wavelength of 480 nm using a SpectraMAX-190 ELISA reader (Molecular Devices, Sunnyvale, CA).
as §2

[8] = standard error in parentheses, read-out: Ka

T1 sequence (P14902 whole entry): as the sequence (P14902 whole entry) above

Row | Ki [1] [µM] | ΔTm at 30 µM [2] [°C] | IC50 [3] [µM] | IC50 [4] [µM] | Compound | further results
1 | 20.2 ± 3.1 | 1.5 | 28.3 ± 0.3 | 25.4 ± 4.4 | C=C(C)[C@H](CC=C(C)C)Cc1c(O)cc(O)c2c1O[C@H](c1ccc(O)cc1O)CC2=O [Kushenol F (KF, 4), kushenol F] | –
2 | – | – | – | – | O=C1CC(c2ccc(O)cc2O)Oc2cc(O)cc(O)c21 (stereo not drawn) [Steppogenin, steppogenin, reference compound] | His-hIDO1 IC50 [4]: does not affect IDO1 inhibitory activity
3 | – | – | 74.9 ± 4.9 | 23.4 ± 1.3 | C=C(C)[C@H](CC=C(C)C)Cc1c(O)cc(OC)c2c1O[C@H](c1ccc(O)cc1O)CC2=O [(−)-Kurarinone (3), (−)-kurarinone] | –
4 | 9.5 ± 0.6 | 5.7 | 4.3 ± 0.3 | 7.7 ± 6.2 | CC(C)=CCc1c(O)c(CC=C(C)C)c2c(c1O)C(=O)C[C@@H](c1ccc(O)cc1O)O2 [Kushenol E (KE, 6), kushenol E] | Kd ([5]; 25 °C, PBS 5% DMSO): 6.5 ± 0.1 µM; kon [5, 8]: 136 M⁻¹ s⁻¹; Kd ([6]; 25 °C, PBS 5% DMSO): 8.9 ± 0.2 µM; kon [6, 8]: 120 M⁻¹ s⁻¹; IC50 [7]: 29.8 ± 1.8 µM
5 | – | – | 42.2 ± 3.5 | 23.5 ± 2.2 | CC(C)=CCc1c(O)cc(O)c2c(=O)c(O)c(-c3ccc(O)cc3)oc12 [Noranhydroicaritin (1), noranhydroicaritin] | –
6 | 13.7 ± 0.03 | 0.4 | 23.8 ± 1.6 | 31.4 ± 1.3 | C=C(C)[C@H](CC=C(C)C)Cc1c(O)cc(OC)c2c1O[C@H](c1ccc(O)cc1OC)CC2=O [(2S)-2′-Methoxy kurarinone (MK, 5), (2S)-2'-methoxy kurarinone] | –
7 | – | – | 83.6 ± 10.8 | 19.3 ± 1.1 | CC(C)=CCc1c(O)cc(O)c2c1OC(c1ccc(O)cc1)CC2=O (stereo not drawn) [Sophoraflavanone B (2), sophoraflavanone B] | –
